Each block holds one sequence with its values, some of them ahead of it.
Target: T1, MyD88^TIR (Homo sapiens, UniProt Q99836)
T1 construct: MyD88 (residues 148–296); 6xHis; made in house; host or cells: E. coli BL21 (DE3)
Assay: T‐Surf phage library (P8 and P3) selection against MyD88^TIR, four rounds, NGS read counts
Assay type: binding
Details: for P8_MyD88 Rank (after) / P8_MyD88 Rank (before): P8 library; for Population: 4th round of selection against MyD88 TIR, share of NGS reads; for P3_MyD88 Rank (after) / P3_MyD88 Rank (before): P3 library
Protocol: T‐Surf libraries were screened against the immobilized TIR domains of two major human TLR adaptor proteins, MAL^TIR and MyD88^TIR, allowing cross‐species selection of TIR‐binding motifs with 190 946 TIR‐derived peptides in a single binding assay (Scheme 1). Enriched phage pools from the fourth round of selection were analyzed using NGS after barcoding the peptide‐coding regions of the phage pools.
Phage display screening was performed by coating two wells of a 96‐well plate (Maxisorp, Thermo Fisher Scientific) with 100 µL of 5 µg mL^−1 TIR domains overnight; then, the coated wells were blocked with 200 µL of blocking buffer (0.2% BSA in PBS) and set aside for 1 h at 4 °C with gentle shaking. Next, 100 µL of the phage library was added to the wells and incubated for 1 h at room temperature (RT; 20 – 22 °C) with gentle shaking. The plate was washed four times with PBS containing 0.5% Tween‐20; the bound phages were eluted by adding 100 µL of 100 mM HCl to each well. The elute was neutralized with 10 µL of 1.0 M Tris‐HCl (pH 11.0). E. coli TG1 cells were grown to the log phase (A600 = ≈0.6), and 1 mL of the culture was incubated with 100 µL of the eluted phages for 30 min at 37 °C, with shaking at 200 rpm. Next, 1 µL of M13KO7 helper phages was added, followed by incubation for 45 min at 37 °C, with shaking. Subsequently, the cells were transferred to 25 mL of 2× yeast extract tryptone/carbenicillin/kanamycin medium and incubated overnight at 37 °C with shaking at 200 rpm. The amplified phages were precipitated with 20% PEG‐8000/2.5 M NaCl to be used for the next round of selection.
The naïve T‐Surf libraries in P8 and P3 and the enriched phage pools after four rounds were barcoded for NGS as previously described.^[ [59] ^] Briefly, 5 µL of the phage pool was used as a template for 20 cycles of a 50 µL PCR reaction using […] each of forward and reverse barcoded primers and PrimeSTAR Max DNA Polymerase. The PCR products were purified using Expin Gel SV (GeneAll). The NGS samples were quantified using qPCR, following the qPCR Quantification Protocol Guide (KAPA Library Quantification kits for Illumina Sequencing Platform), and qualified using the TapeStation High Sensitivity D1000 ScreenTape (Agilent Technologies). The indexed libraries were further sequenced by Macrogen (Seoul, Republic of Korea) using the NovaSeq platform (Illumina) with 100 bp paired‐end reads. The reads were demultiplexed by barcodes and filtered for an average Phred quality score of at least 30, followed by trimming the flanking consensus sequences using Cutadapt (version 2.3). Peptide sequence populations were analyzed according to the read counts.

[1] = selection against MyD88 TIR, rank by count after grouping
[2] = selection against MyD88 TIR, rank by count before grouping
[3] = P3_MyD88: rank by count after grouping
[4] = P3_MyD88: rank by count before grouping
[5] = P8_MyD88: rank by NGS read count after grouping
[6] = P8_MyD88: rank by NGS read count before grouping
[7] = P8_MyD88 pool: P8 T-Surf phage library
[8] = 4R selection against MyD88, rank after grouping
[9] = 4R selection against MyD88, rank before grouping
[10] = selection against MyD88, rank by count after grouping
[11] = selection against MyD88, rank by count before grouping
[12] = selection against MyD88, rank after grouping
[13] = selection against MyD88, rank before grouping
[14] = P8_MyD88: rank by count after grouping
[15] = P8_MyD88: rank by count before grouping

T1 sequence (Q99836 148-296): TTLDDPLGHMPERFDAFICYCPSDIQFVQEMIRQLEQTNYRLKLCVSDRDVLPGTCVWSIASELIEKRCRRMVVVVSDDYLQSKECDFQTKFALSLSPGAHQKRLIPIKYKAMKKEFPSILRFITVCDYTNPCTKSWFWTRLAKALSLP

Sequence: SSRWALDELVQILHARELF
Rank (after) [5]: 887 | Rank (before) [6]: 3809

Sequence: YASSSWALLELSKIFEAM
Rank (after) [5]: 994 | Rank (before) [6]: 1899

Sequence: DPQDLQWFYERLVSLL
Population [7]: 0.03%

Sequence: GNDVLGRKGLRVGSKD
Rank (after) [3]: 437 | Rank (before) [4]: 1875

Sequence: NGQSSRFKDDADLVGQ
P3_MyD88 Rank (after) [10]: 678 | P3_MyD88 Rank (before) [11]: 3337

Sequence: DPQDLQWFYECLVSLL
P8_MyD88 Rank (after) [12]: 514 | P8_MyD88 Rank (before) [13]: 2911

Sequence: AVAHEISNKMKIFATI
P3_MyD88 Rank (after) [1]: 270 | P3_MyD88 Rank (before) [2]: 1888

Sequence: YVDSPWALDELVKILQ
P8_MyD88 Rank (after) [1]: 207 | P8_MyD88 Rank (before) [2]: 300

Sequence: YTALPNSGFHTFRDNN
P3_MyD88 Rank (after) [1]: 257 | P3_MyD88 Rank (before) [2]: 1636

Sequence: NRWRNALTAAANLRGG
P3_MyD88 Rank (after) [12]: 510 | P3_MyD88 Rank (before) [13]: 3457

Sequence: SSFREGLLRLLELSKK
Population (P3_MyD88 pool: P3 T-Surf phage library): 0.0032%

Sequence: WALDELLKILYVIATL
P8_MyD88 Rank (after) [12]: 525 | P8_MyD88 Rank (before) [13]: 1480

Sequence: PQDLAWLYERPLSLIL
Rank (after) [5]: 1015 | Rank (before) [6]: 3424

Sequence: IDDDHLTYLVRLLYSL
P8_MyD88 Rank (after) [8]: 607 | P8_MyD88 Rank (before) [9]: 3631

Sequence: WFLFTVRSAIYAMSPA
Rank (after) [5]: 921 | Rank (before) [6]: 1358

Sequence: EYRNESKSVWDIINAI
P8_MyD88 Rank (after) [8]: 642 | P8_MyD88 Rank (before) [9]: 3172

Sequence: WKEALTYVSLLVGFPF
P8_MyD88 Rank (after) [1]: 224 | P8_MyD88 Rank (before) [2]: 380

Sequence: YAFTGHPPRYLVQRGV
Rank (after) [3]: 433 | Rank (before) [4]: 1536

Sequence: YILYEDQTIKFVFRDFIQEL
Rank (after) [14]: 385 | Rank (before) [15]: 988

Sequence: LGYHWIDWEYFVALK
P8_MyD88 Rank (after) [1]: 235 | P8_MyD88 Rank (before) [2]: 599

Sequence: YAASPWWFDELVTILG
Rank (after) [14]: 433 | Rank (before) [15]: 1725

Further lines, results first:

P8_MyD88 Rank (after) [1]: 232 | P8_MyD88 Rank (before) [2]: 437
Sequence: YYDSRWALDELLQILHARELF

Rank (after) [3]: 159 | Rank (before) [4]: 2531
Sequence: LKGGDPYFWSKLRYTM

P8_MyD88 Rank (after) [8]: 627 | P8_MyD88 Rank (before) [9]: 2697
Sequence: DPQDLDCFDERLGSRV

P3_MyD88 Rank (after) [1]: 265 | P3_MyD88 Rank (before) [2]: 1150
Sequence: QGGDEITPSLFKAFKD

P8_MyD88 Rank (after) [1]: 275 | P8_MyD88 Rank (before) [2]: 586
Sequence: EWFYERLFSQMRKDIK

Rank (after) [3]: 441 | Rank (before) [4]: 2377
Sequence: LSRVPGVHDFRGLVDI

P3_MyD88 Rank (after) [1]: 236 | P3_MyD88 Rank (before) [2]: 1997
Sequence: DHHLDLSRGKAIKPAILG

Rank (after) [3]: 173 | Rank (before) [4]: 1939
Sequence: AVEKETDKIQTPPKNA

P8_MyD88 Rank (after) [1]: 287 | P8_MyD88 Rank (before) [2]: 3472
Sequence: PQDLEWLYERLVRLIL

P3_MyD88 Rank (after) [8]: 605 | P3_MyD88 Rank (before) [9]: 2832
Sequence: QYSGTPLAHTSKFPDE

P8_MyD88 Rank (after) [12]: 507 | P8_MyD88 Rank (before) [13]: 1764
Sequence: YARSDDNYYYWVTHVLLRHL

P3_MyD88 Rank (after) [1]: 252 | P3_MyD88 Rank (before) [2]: 3659
Sequence: KEVKGWRDALTTVASL

P8_MyD88 Rank (after) [8]: 633 | P8_MyD88 Rank (before) [9]: 1740
Sequence: YAASPWWFDELLQIA

Rank (after) [14]: 144 | Rank (before) [15]: 161 | Population [7]: 0.00925%
Sequence: QYLRWPEDFQDVGWFL

P3_MyD88 Rank (after) [8]: 580 | P3_MyD88 Rank (before) [9]: 3076
Sequence: SLRRNLVSNLIEEFIR

Rank (after) [5]: 984 | Rank (before) [6]: 2474
Sequence: DWVCDYLLPDREGPAG

P8_MyD88 Rank (after) [10]: 679 | P8_MyD88 Rank (before) [11]: 1510
Sequence: WALDERLIIQYANETM

P8_MyD88 Rank (after) [12]: 508 | P8_MyD88 Rank (before) [13]: 1386
Sequence: WSLDELLKILYAKETI

Rank (after) [14]: 475 | Rank (before) [15]: 1653
Sequence: WILRAIWNSFGIVCI

P8_MyD88 Rank (after) [1]: 194 | P8_MyD88 Rank (before) [2]: 252
Sequence: FFWMQLRSLLGTPGGL

Rank (after) [3]: 413 | Rank (before) [4]: 2302
Sequence: LVAHEISKKMKIFRP

Rank (after) [14]: 122 | Rank (before) [15]: 129 | Population [7]: 0.0143%
Sequence: GFIDNLYQALANMGIH

P3_MyD88 Rank (after) [10]: 697 | P3_MyD88 Rank (before) [11]: 3541
Sequence: NQGRNALTAAADLSGW

Rank (after) [14]: 409 | Rank (before) [15]: 1413
Sequence: WALDGLLKILHARELF
